Measurements published in patent US20230138729A1, “Coumarin Derivatives of Sugar Analogs and Uses Thereof” (Rubedo Life Sciences, Inc., priority 2021, published 2023).

Assays:
[1] = test system: T47D breast cancer cells (sgNTC control); assay: Cellular hydrolysis of compounds in live T47D control cells (4-MU fluorescence); type: cell-based; details: compound 30 uM, naked sugar and acetylated version; for Average percent of product relative to 26 at 72 hours in T47D control cells: modified galactose conjugates
Experimental: (§1) T47D breast cancer cells were cultured in RPMI 1640 medium containing 10% heat inactivated fetal bovine serum. Cell lines were infected with lentiviral construct(s) containing S. pyogenes Cas9 and sgRNA(s) targeting the gene(s) of interest (sgNTC, non-targeting control; sgFUCA1_1, FUCA1 knockout). Infected cells were selected by antibiotic treatment. To assess the cellular hydrolysis of compounds, cells were seeded at 3-20,000 cells per well into 96-well plates and incubated at 37° C. with 5% CO2. The next day, compounds (30 uM) were added to the cells. Wells containing only compounds in media were included as background fluorescence controls. 4-methylumbelliferyl-alpha-L-fucopyranoside (referred to as MU-Fuc, CAS 54322-38-2) or 4-methylumbelliferyl-2,3,4,6-tetra-O-acetyl-beta-D-galactopyranoside (CAS 6160-79-8) were included as positive controls. A 4-methylumbelliferone (referred to as 4-MU, CAS 90-33-5) standard ladder ranging from 39 to 5000 pmoles was added to each cell line. Fluorescence was read at the excitation wavelength of 330 nm and the emission wavelength of 450 nm on the plate reader every 24 hours for 72 hours. The plate was returned to the 37° C. 5% CO2 incubator between readings. A linear regression was performed to determine the slope of the line relating fluorescence to pmoles of 4-MU standard at each time point. The average cell-free background fluorescence for each compound at each time point was subtracted from all compound sample fluorescence measurements. Compound sample fluorescence was converted to pmoles of 4-MU by dividing by the slope of the 4-MU linear regression. The amount of 4-MU present at 72 hours for each compound in each cell line was compared as a percentage of the appropriate positive control compound.
The hydrolysis of modified galactose sugars conjugated to 4-methylumbelliferone in live cells was assessed by incubating the compounds in media with T47D breast cancer cells for 3 days and quantifying the generation of fluorescence over time as described in Example 11 and is compiled in Table 3, supra. […]

[2] = biological target: T1, Recombinant human GLB1 (rhGLB1) (Homo sapiens, UniProt P16278); assay: Enzymatic hydrolysis by recombinant human GLB1 (fluorescence reaction velocity); type: biochemical; details: compound 500 uM; for Average percent of MU-Gal reaction velocity: pH 4.4, 37° C., relative to positive control MU-Gal; for rhGLB1 substrate: pH 4.4 McIlvaine Buffer, 37° C.
T1 sequence (P16278 29-677): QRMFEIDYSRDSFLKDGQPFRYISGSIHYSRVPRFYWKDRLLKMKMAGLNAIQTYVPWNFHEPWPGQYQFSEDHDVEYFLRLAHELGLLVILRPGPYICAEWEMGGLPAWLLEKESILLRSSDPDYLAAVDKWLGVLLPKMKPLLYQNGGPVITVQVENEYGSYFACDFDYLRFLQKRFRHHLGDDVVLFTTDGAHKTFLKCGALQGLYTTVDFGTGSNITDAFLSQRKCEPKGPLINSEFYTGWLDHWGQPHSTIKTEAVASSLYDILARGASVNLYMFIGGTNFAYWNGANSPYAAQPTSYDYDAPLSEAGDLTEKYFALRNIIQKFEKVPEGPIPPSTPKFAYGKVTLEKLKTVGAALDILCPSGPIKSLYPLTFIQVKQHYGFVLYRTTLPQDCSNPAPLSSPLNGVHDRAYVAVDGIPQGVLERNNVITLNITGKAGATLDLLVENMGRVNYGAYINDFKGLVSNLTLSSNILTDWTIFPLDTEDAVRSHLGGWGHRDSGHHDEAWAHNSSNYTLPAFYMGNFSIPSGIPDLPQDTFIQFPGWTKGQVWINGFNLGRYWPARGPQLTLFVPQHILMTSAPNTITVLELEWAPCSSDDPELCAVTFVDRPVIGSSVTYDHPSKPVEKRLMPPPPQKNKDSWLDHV
Experimental: (§2) Compounds were added to wells of a black-walled clear bottom 96 well plate at a concentration of […]. 4-methylumbelliferyl-alpha-L-fucopyranoside (referred to as MU-Fuc, CAS 54322-38-2) or 4-methylumbelliferyl-beta-D-galactopyranoside (referred to as MU-Gal, CAS 6160-78-7) were included as positive control compounds. Recombinant human FUCA1 (1-25 nM) or GLB1 (2-50 nM) in reaction buffer comprised of pH 4.4 McIlvaine Buffer, 2 mM dithiothreitol and 0.1% (v/v) Tween-20 was added to the wells. Enzyme-free controls were included to check for spontaneous compound hydrolysis. The plate was shaken and incubated at 37° C. in the plate reader. Every 5 minutes, fluorescence was read at the excitation wavelength of 330 nm and the emission wavelength of 450 nm for up to 3 hours. Linear regressions were calculated during the linear phase of the reaction to calculate the reaction velocity at each concentration of compound. Reaction velocities for compounds at 500 uM were compared as a percentage of the appropriate positive control compound.
Hydrolysis by the recombinant human GLB1 (rhGLB1) enzyme of modified galactose sugars conjugated to 4-methylumbelliferone was assessed by quantifying the generation of fluorescence over time as described in Example 10 and is compiled in Table 1, supra. Reaction rates of each compound were compared to the hydrolysis rate of the unmodified galactose conjugate MU-Gal. Of the modified galactose compounds tested, compound 42 was rapidly hydrolyzed, at a rate about 8% of that of MU-Gal. Compounds 33 and 6 were hydrolyzed with reaction velocities about 4% or 3% of that of MU-Gal, respectively. Compounds 35, 31, and 27 were hydrolyzed by rhGLB1, but slowly compared to MU-Gal with rates less than 2% of that of MU-Gal.

[3] = biological target: T2, Recombinant human FUCA1 (rhFUCA1) (Homo sapiens, UniProt P04066); assay: Enzymatic hydrolysis by recombinant human FUCA1 (fluorescence reaction velocity); type: biochemical; details: compound 500 uM; for Average reaction velocity relative to MU-Fuc (%): pH 4.4, 37° C., relative to positive control MU-Fuc; for rhFUCA1 substrate: pH 4.4 McIlvaine Buffer, 37° C.
T2 sequence (P04066 32-466): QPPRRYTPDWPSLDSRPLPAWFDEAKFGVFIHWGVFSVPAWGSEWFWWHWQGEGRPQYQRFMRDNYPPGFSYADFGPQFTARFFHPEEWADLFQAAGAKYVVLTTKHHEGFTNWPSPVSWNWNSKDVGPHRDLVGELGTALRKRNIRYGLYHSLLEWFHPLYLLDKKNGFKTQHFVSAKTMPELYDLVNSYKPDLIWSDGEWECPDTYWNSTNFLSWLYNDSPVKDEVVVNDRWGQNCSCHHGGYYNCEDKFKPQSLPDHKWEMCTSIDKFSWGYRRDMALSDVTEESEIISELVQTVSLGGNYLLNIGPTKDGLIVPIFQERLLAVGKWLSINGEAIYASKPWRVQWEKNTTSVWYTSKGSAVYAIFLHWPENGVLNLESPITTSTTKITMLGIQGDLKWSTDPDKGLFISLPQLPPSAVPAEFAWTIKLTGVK
Experimental: as §2
Hydrolysis by the recombinant human FUCA1 enzyme (rhFUCA1) of modified fucose sugars conjugated to 4-methylumbelliferone or 7-amino-4-methylcoumarin was assessed by quantifying the generation of fluorescence over time as described in Example 10 and is compiled in Table 1, supra. Reaction rates of each compound were compared to the hydrolysis of the unmodified fucose conjugate MU-Fuc (14). Compound 43 was hydrolyzed by rhFUCA1 at a velocity about 35% of that of MU-Fuc. The reaction rate of 19 with rhFUCA1 was about 30% of that of MU-Fuc.

[4] = test system: T47D FUCA1 knockout cells; assay: Cellular hydrolysis in T47D FUCA1 knockout cells versus T47D control cells; type: cell-based; details: compound 30 uM
Experimental: as §1, with “4-methylumbelliferyl-alpha-L-fucopyranoside (referred to as MU-Fuc, CAS 54322-38-2) or 4-methylumbelliferyl-2,3,4,6-tetra-O-acetyl-beta-D-galactopyranoside (CAS 6160-79-8) were included as positive controls. A 4-methylumbelliferone (referred to as 4-MU, CAS 90-33-5) standard ladder ranging from 39 to 5000 pmoles was added to each cell line.” left out, “The plate was returned to the 37° C.” left out, “The amount of 4-MU present at 72 hours for each compound in each cell line was compared as a percentage of the appropriate positive control compound.” left out

| Compound | Average percent of MU-Gal reaction velocity [2] | rhGLB1 substrate [2] | rhFUCA1 substrate [3] | further results |
| --- | --- | --- | --- | --- |
| Cc1cc(=O)oc2cc(O[C@@H]3O[C@@H](C)[C@@H](O)[C@@H](O)[C@@H]3O)ccc12 [Compound 14, 4-methyl-7-(((2S,3S,4R,5S,6S)-3,4,5-trihydroxy-6-methyltetrahydro-2H-pyran-2-yl)oxy)-2H-chromen-2-one, reference compound] | 7.6% | yes | yes | Average percent of product relative to MU-Fuc (14) at 72 hours by T47D control cells ([1]; modified fucose conjugates): 100%; Average reaction velocity relative to MU-Fuc (%) [3]: 100% |
| Cc1cc(=O)oc2cc(O[C@H]3C[C@H](O)[C@H](O)[C@H](C)O3)ccc12 [Compound 19, (2S,3R,4S,6S)-2-methyl-6-((4-methyl-2-oxo-2H-chromen-7-yl)oxy)tetrahydro-2H-pyran-3,4-diyl diol] |  |  | yes |  |
| Cc1cc(=O)oc2cc(O[C@H]3C[C@@H](O)[C@@H](O)[C@@H](CO)O3)ccc12 [Compound 24] | 0% | not hydrolyzed and no |  |  |
| Cc1cc(=O)oc2cc(O[C@@H]3O[C@H](CO)[C@H](O)[C@H](F)[C@H]3O)ccc12 [Compound 31] |  | yes |  |  |
| Cc1cc(=O)oc2cc(O[C@@H]3O[C@H](CO)C[C@H](O)[C@H]3O)ccc12 [Compound 33] |  | yes |  |  |
| Cc1cc(=O)oc2cc(O[C@@H]3O[C@H](CO)[C@H](O)C[C@H]3O)ccc12 [Compound 35] |  | yes |  |  |
| COc1ccc(C2O[C@H]3[C@H](O)[C@H](Oc4ccc5c(C)cc(=O)oc5c4)O[C@@H](C)[C@H]3O2)cc1 (stereo partly drawn) [Compound 43, 7-(((3aR,4S,6S,7S,7aS)-7-hydroxy-2-(4-methoxyphenyl)-4-methyltetrahydro-3aH-[1,3]dioxolo[4,5-c]pyran-6-yl)oxy)-4-methyl-2H-chromen-2-one] |  |  | yes |  |
| CC(=O)O[C@H]1[C@H](OC(C)=O)[C@H](Oc2ccc3c(C)cc(=O)oc3c2)O[C@@H](C)[C@H]1OC(C)=O [Compound 44] |  |  |  | Average percent of product formed by each compound at 72 hours in T47D FUCA1 knockout cells relative to product formed in T47D control cells [4]: 8% |
| Cc1cc(=O)oc2cc(NC(=O)OCc3ccc(O[C@@H]4O[C@@H](C)[C@@H](O)[C@@H](O)[C@@H]4O)cc3)ccc12 [Compound 50, [4-[(2S,3S,4R,5S,6S)-3,4,5-trihydroxy-6-methyl-tetrahydropyran-2-yl]oxyphenyl]methyl N-(4-methyl-2-oxo-chromen-7-yl)carbamate] |  |  | yes | Average reaction velocity relative to MU-Fuc (%) [3]: 16.7% |
| Cc1cc(=O)oc2cc(NC(=O)OCc3ccc(NC(=O)O[C@@H]4O[C@@H](C)[C@@H](O)[C@@H](O)[C@@H]4O)cc3)ccc12 [Compound 59, [4-[[(2S,3S,4R,5S,6S)-3,4,5-trihydroxy-6-methyl-tetrahydropyran-2-yl]oxycarbonylamino]phenyl]methyl N-(4-methyl-2-oxo-chromen-7-yl)carbamate] |  |  | yes |  |
| Cc1cc(=O)oc2cc(O[C@@H]3O[C@H](CO)[C@H](O)[C@H](O)[C@H]3O)ccc12 [MU-Gal, 4-methylumbelliferyl-beta-D-galactopyranoside, reference compound] | 100% | yes |  |  |
| (2R,3S,4S,5R,6S)-2-(acetoxymethyl)-5-fluoro-6-((4-methyl-2-oxo-2H-chromen-7-yl)oxy)tetrahydro-2H-pyran-3,4-diyl diol [Compound 20] | 0% | not hydrolyzed and no |  | Average percent of product relative to 26 at 72 hours in T47D control cells [1]: 0% |
| (2S,3R,4R,5S,6S)-5-fluoro-2-methyl-6((4-methyl-2-oxo-2H-chromen-7-yl)oxy)tetrahydro-2H-pyran-3,4-diyl diacetate [Compound 27] |  | yes |  | Average percent of product relative to 26 at 72 hours in T47D control cells [1]: 13% |
